From ChEMBL document CHEMBL1158221, “Nigranoic acid, a triterpenoid from Schisandra sphaerandra that inhibits HIV-1 reverse transcriptase” (J Nat Prod, 1996)

Tests used:
[1] = Inhibition of RNaseH at 200 ug/ml
[2] = Inhibition of RNA polymerase
[3] = Inhibition of DNA polymerase alpha
[4] = Inhibition of DNA polymerase beta at 200 ug/ml
[5] = tested on: Avian myeloblastosis virus; assay: Inhibition of AMV reverse transcriptase at 200 ug/ml
[6] = Inhibition of DNA dependent DNA polymerase at 200 ug/ml
[7] = Inhibition of AMV reverse transcriptase; design: species or system Avian myeloblastosis virus
[8] = tested on: Human immunodeficiency virus 2; assay: Inhibition of HIV2 reverse transcriptase at 200 ug/ml
[9] = Inhibition of HIV1 reverse transcriptase mutant; design: species or system Human immunodeficiency virus 1
[10] = Inhibition of DNA polymerase alpha at 200 ug/ml
[11] = target: Human immunodeficiency virus type 1 reverse transcriptase (Human immunodeficiency virus 1) (UniProt Q72547); assay: Inhibition of HIV1 reverse transcriptase at 200 ug/ml
[12] = tested on: Human immunodeficiency virus 1; assay: Inhibition of HIV1 reverse transcriptase mutant at 200 ug/ml
[13] = Inhibition of DNA dependent DNA polymerase
[14] = Inhibition of RNaseH
[15] = target: Human immunodeficiency virus type 1 reverse transcriptase (Human immunodeficiency virus 1, UniProt Q72547); assay: Inhibition of HIV1 reverse transcriptase
[16] = Inhibition of DNA polymerase beta
[17] = Inhibition of RNA polymerase at 200 ug/ml
[18] = Inhibition of HIV2 reverse transcriptase; design: species or system Human immunodeficiency virus 2

SMILES: C=C(C)[C@@H]1CC[C@@H]2[C@]3(CC[C@]4(C)[C@@H]([C@H](C)CC/C=C(/C)C(=O)O)CC[C@@]24C)C[C@]13CCC(=O)O [NIGRANOIC ACID]
- inhibition [1]: 6.8%
- IC50 [2]: 188 µM
- IC50 [3]: > 425 µM
- inhibition [4]: 99.1%
- inhibition [5]: 99.2%
- inhibition [6]: 96.7%
- IC50 [7]: 242 µM
- inhibition [8]: 76.7%
- IC50 [9]: 388 µM
- inhibition [10]: 46.2%
- inhibition [11]: 99.4%
- inhibition [12]: 71%
- IC50 [13]: 40.6 µM
- IC50 [14]: > 425 µM
- IC50 [15]: 159 µM
- IC50 [16]: 16.6 µM
- inhibition [17]: 75.4%
- IC50 [18]: 356 µM
